Experimental data reported in patent publication US8546427B2, “Tetrahydroquinoline derivatives” (Hoffmann-La Roche Inc., priority 2010, dated 2013).

tested on: AMP-activated protein kinase (AMPK); test: ADP Quest assay for AMPK activators; format: biochemical; set-up: key: fold AMPK activation at 30 μM activator vs none; conditions: fold of AMPK activation to phosphorylate SAMS peptide without and with an activator at the concentration of 30 μM
Protocol: This method evaluates AMP-activated protein kinase (AMPK) activity through detecting the accumulation of ADP product using an ADP Quest kit and determining the E30 values of the small molecular AMPK activators. ADP Quest kit (DiscoveRx, Fremont, Calif.) is stored at −20° C. before use. Before an experiment, thaw the kit (include assay buffer, ADP standard solution, reagent A and reagent B) and equilibrate to room temperature. Dispense the ADP Quest reagents into single-use aliquots and store at −20° C. The compound concentrations typically range from 0 μM to 100 μM by 2-fold dilution. AMP concentrations range from 0.98 μM to 1 mM as the reference control. In an assay, thaw and equilibrate the assay buffer, reagent A and reagent B to room temperature for 30 minutes prior to use. Mix ATP, SAMS peptide substrate and compound, and place them into the 384-well assay plate. Add reagent A and B based on the assay kit protocol. Incubate the assay plate at room temperature for 30 minutes after addition the mixture followed by the addition of AMPK protein (Invitrogen, CA) to initiate the AMPK phosphorylation reaction. At the same time, reactions with AMPK activator AMP in the absence of enzyme is included as blank control. The reaction fluorescence signal is monitored and recorded on Envision in kinetic mode with the excitation wavelength of 530 nm and emission wavelength of 590 nm. The E30 value, defined as the fold of AMPK activation to phosphorylate SAMS peptide without and with an activator at the concentration of 30 μM, is calculated and analyzed using Prism 5.0.

E30	Compound
3.30	CC(C)(Nc1cccc(C2CC(C)(C)c3cc(Cl)ccc3N2)c1)C(=O)O (stereo not drawn) [Example 1, 2-[3-(6-Chloro-4,4-dimethyl-1,2,3,4-tetrahydro-quinolin-2-yl)-phenylamino]-2-methyl-propionic acid]
2.63	CC1(C)CC(c2cccc(NC3(C(=O)O)CC3)c2)Nc2ccc(Cl)cc21 (stereo not drawn) [Example-2, 1-[3-(6-Chloro-4,4-dimethyl-1,2,3,4-tetrahydro-quinolin-2-yl)-phenylamino]-cyclopropanecarboxylic acid]
2.88	CC(C)(Nc1cccc(C2CC(C)(C)c3cc(C#N)ccc3N2)c1)C(=O)O (stereo not drawn) [Example-3, 2-[3-(6-Cyano-4,4-dimethyl-1,2,3,4-tetrahydro-quinolin-2-yl)-phenylamino]-2-methyl-propionic acid]
2.43	CC1(C)CC(c2cccc(NC3(C(=O)O)CC3)c2)Nc2ccc(C#N)cc21 (stereo not drawn) [Example-4, 1-[3-(6-Cyano-4,4-dimethyl-1,2,3,4-tetrahydro-quinolin-2-yl)-phenylamino]-cyclopropanecarboxylic acid]
2.44	CC1(C)CC(c2cccc(NC3(C(=O)O)CC3)c2)Nc2c(C(=O)O)cccc21 (stereo not drawn) [Example-5, 2-[3-(1-Carboxy-cyclopropylamino)-phenyl]-4,4-dimethyl-1,2,3,4-tetrahydro-quinoline-8-carboxylic acid]
2.72	CC1(C)CC(c2cccc(NC3(C(=O)O)CC3)c2)Nc2c(C(=O)O)cc(Cl)cc21 (stereo not drawn) [Example-6, 2-[3-(1-Carboxy-cyclopropylamino)-phenyl]-6-chloro-4,4-dimethyl-1,2,3,4-tetrahydro-quinoline-8-carboxylic acid]
2.27	CC(C)(Nc1cccc(C2CC(C)(C)c3cc(Cl)cc(C(=O)O)c3N2)c1)C(=O)O (stereo not drawn) [Example-7, 2-[3-(1-Carboxy-1-methyl-ethylamino)-phenyl]-6-chloro-4,4-dimethyl-1,2,3,4-tetrahydro-quinoline-8-carboxylic acid]
1.68	Cc1cc(C#N)cc2c1NC(c1cccc(NC3(C(=O)O)CC3)c1)CC2(C)C (stereo not drawn) [Example-8, 1-[3-(6-Cyano-4,4,8-trimethyl-1,2,3,4-tetrahydro-quinolin-2-yl)-phenylamino]-cyclopropanecarboxylic acid]
2.34	CC(C)(Nc1cccc(C2CC(C)(C)c3cc(C(F)(F)F)ccc3N2)c1)C(=O)O (stereo not drawn) [Example-9, 2-[3-(4,4-Dimethyl-6-trifluoromethyl-1,2,3,4-tetrahydro-quinolin-2-yl)-phenylamino]-2-methyl-propionic acid]
1.70	CC1(C)CC(c2ccccc2NS(C)(=O)=O)Nc2ccc(Cl)cc21 (stereo not drawn) [Example-10, N-[2-(6-Chloro-4,4-dimethyl-1,2,3,4-tetrahydro-quinolin-2-yl)-phenyl]-methanesulfonamide]
2.48	CN1c2ccc(C(F)(F)F)cc2C(C)(C)CC1c1cccc(NC(C)(C)C(=O)O)c1 (stereo not drawn) [Example-11, 2-Methyl-2-[3-(1,4,4-trimethyl-6-trifluoromethyl-1,2,3,4-tetrahydro-quinolin-2-yl)-phenylamino]-propionic acid]
2.37	Cc1cc(C#N)cc2c1NC(c1cccc(NC(C)(C)C(=O)O)c1)CC2(C)C (stereo not drawn) [Example-12, 2-[3-(6-Cyano-4,4,8-trimethyl-1,2,3,4-tetrahydro-quinolin-2-yl)-phenylamino]-2-methyl-propionic acid]
2.08	CN1c2ccc(C(F)(F)F)cc2C(C)(C)CC1c1cccc(NC2(C(=O)O)CC2)c1 (stereo not drawn) [Example-13, 1-[3-(1,4,4-Trimethyl-6-trifluoromethyl-1,2,3,4-tetrahydro-quinolin-2-yl)-phenylamino]-cyclopropanecarboxylic acid]
1.78	CC1(C)CC(c2ccccc2NS(=O)(=O)c2cccc(F)c2)Nc2ccc(Cl)cc21 (stereo not drawn) [Example-14, N-[2-(6-Chloro-4,4-dimethyl-1,2,3,4-tetrahydro-quinolin-2-yl)-phenyl]-3-fluoro-benzenesulfonamide]
1.88	CC(C)(Nc1cccc(C2CC(C)(C)c3cccc(C(=O)O)c3N2)c1)C(=O)O (stereo not drawn) [Example-15, 2-[3-(1-Carboxy-1-methyl-ethylamino)-phenyl]-4,4-dimethyl-1,2,3,4-tetrahydro-quinoline-8-carboxylic acid]
1.89	CCS(=O)(=O)Nc1ccccc1C1CC(C)(C)c2cc(Cl)ccc2N1 (stereo not drawn) [Example-16, Ethanesulfonic acid [2-(6-chloro-4,4-dimethyl-1,2,3,4-tetrahydro-quinolin-2-yl)-phenyl]-amide]
1.91	CC1(C)CC(c2cccc(NC3(C(=O)O)CC3)c2)Nc2ccc(C(F)(F)F)cc21 (stereo not drawn) [Example-17, 1-[3-(4,4-Dimethyl-6-trifluoromethyl-1,2,3,4-tetrahydro-quinolin-2-yl)-phenylamino]-cyclopropanecarboxylic acid]

E30	Compound
1.79	CC1(C)CC(c2cccc(NC3(C(=O)O)CC3)c2)Nc2c(Cl)cc(C#N)cc21 (stereo not drawn) [Example-18, 1-[3-(8-Chloro-6-cyano-4,4-dimethyl-1,2,3,4-tetrahydro-quinolin-2-yl)-phenylamino]-cyclopropanecarboxylic acid]
1.64	CC1(C)CC(c2ccccc2NS(=O)(=O)c2ccc(F)cc2)Nc2ccc(Cl)cc21 (stereo not drawn) [Example-19, N-[2-(6-Chloro-4,4-dimethyl-1,2,3,4-tetrahydro-quinolin-2-yl)-phenyl]-4-fluoro-benzenesulfonamide]
1.57	CC(C)(Nc1ccccc1C1CC(C)(C)c2cc(C#N)ccc2N1)C(=O)O (stereo not drawn) [Example-20, 2-[2-(6-Cyano-4,4-dimethyl-1,2,3,4-tetrahydro-quinolin-2-yl)-phenylamino]-2-methyl-propionic acid]
1.75	CC1(C)CC(c2ccccc2NS(=O)(=O)c2ccccc2F)Nc2ccc(Cl)cc21 (stereo not drawn) [Example-21, N-[2-(6-Chloro-4,4-dimethyl-1,2,3,4-tetrahydro-quinolin-2-yl)-phenyl]-2-fluoro-benzenesulfonamide]
1.40	CC1(C)CC(c2ccccc2NC2(C(=O)O)CC2)Nc2ccc(Cl)cc21 (stereo not drawn) [Example-22, 1-[2-(6-Chloro-4,4-dimethyl-1,2,3,4-tetrahydro-quinolin-2-yl)-phenylamino]-cyclopropanecarboxylic acid]
1.14	CC1(C)CC(c2ccccc2NS(C)(=O)=O)Nc2ccc(C#N)cc21 (stereo not drawn) [Example-23, N-[2-(6-Cyano-4,4-dimethyl-1,2,3,4-tetrahydro-quinolin-2-yl)-phenyl]-methanesulfonamide]
3.22	CN1c2ccc(C#N)cc2C(C)(C)CC1c1cccc(NC(C)(C)C(=O)O)c1 (stereo not drawn) [Example-24, 2-[3-(6-Cyano-1,4,4-trimethyl-1,2,3,4-tetrahydro-quinolin-2-yl)-phenylamino]-2-methyl-propionic acid]
2.02	CC1(C)CC(c2ccccc2NC2(C(=O)O)CC2)Nc2ccc(C#N)cc21 (stereo not drawn) [Example-25, 1-[2-(6-Cyano-4,4-dimethyl-1,2,3,4-tetrahydro-quinolin-2-yl)-phenylamino]-cyclopropanecarboxylic acid]
1.26	CC(C)(Nc1ccccc1C1CC(C)(C)c2cc(Cl)ccc2N1)C(=O)O (stereo not drawn) [Example-26, 2-[2-(6-Chloro-4,4-dimethyl-1,2,3,4-tetrahydro-quinolin-2-yl)-phenylamino]-2-methyl-propionic acid]
2.46	CN1c2ccc(C#N)cc2C(C)(C)CC1c1cccc(NC2(C(=O)O)CC2)c1 (stereo not drawn) [Example-28, 1-[3-(6-Cyano-1,4,4-trimethyl-1,2,3,4-tetrahydro-quinolin-2-yl)-phenylamino]-cyclopropanecarboxylic acid]
2.70	CC(C)(Nc1cccc(C2CC(C)(C)c3cc(C#N)cc(Cl)c3N2)c1)C(=O)O (stereo not drawn) [Example-29, 2-[3-(8-Chloro-6-cyano-4,4-dimethyl-1,2,3,4-tetrahydro-quinolin-2-yl)-phenylamino]-2-methyl-propionic acid]
2.16	Cc1cc(F)cc2c1NC(c1cccc(NC(C)(C)C(=O)O)c1)CC2(C)C (stereo not drawn) [Example-31, 2-[3-(6-Fluoro-4,4,8-trimethyl-1,2,3,4-tetrahydro-quinolin-2-yl)-phenylamino]-2-methyl-propionic acid]
1.31	CC1(C)CC(c2ccccc2NC(=O)c2ccc(F)cc2)Nc2ccc(C(=O)O)cc21 (stereo not drawn) [Example-32, 2-[2-(4-Fluoro-benzoylamino)-phenyl]-4,4-dimethyl-1,2,3,4-tetrahydro-quinoline-6-carboxylic acid]
2.13	CCS(=O)(=O)Nc1ccccc1C1CC(C)(C)c2cc(C(=O)O)ccc2N1 (stereo not drawn) [Example-33, 2-(2-Ethanesulfonylamino-phenyl)-4,4-dimethyl-1,2,3,4-tetrahydro-quinoline-6-carboxylic acid]
2.39	CC1(C)CC(c2ccccc2NS(=O)(=O)c2cccnc2)Nc2ccc(C(=O)O)cc21 (stereo not drawn) [Example-34, 4,4-Dimethyl-2-[2-(pyridine-3-sulfonylamino)-phenyl]-1,2,3,4-tetrahydro-quinoline-6-carboxylic acid]
1.23	CC1(C)CC(c2ccccc2NC(=O)c2ccccc2F)Nc2ccc(C(=O)O)cc21 (stereo not drawn) [Example-35, 2-[2-(2-Fluoro-benzoylamino)-phenyl]-4,4-dimethyl-1,2,3,4-tetrahydro-quinoline-6-carboxylic acid]
